The text below walks through data of publication PMC9785202, “Changes in Disposition of Ezetimibe and Its Active Metabolites Induced by Impaired Hepatic Function: The Influence of Enzyme and Transporter Activities” (Pharmaceutics, 2022).

One data set deals with liver slices. Description: Uptake of EZE-Ph in liver slices of control and CCl4-induced rats. It counts as in vitro ADME, rat. Conditions: 10 μM EZE-Ph, 10 min. The protocol:
Liver slices were prepared as previously described elsewhere. Rats were anesthetized and sacrificed via exsanguination from the abdominal aorta, and the livers were excised. Liver cylindrical cores of an 8 mm diameter were made before slicing. Liver slices with a thickness of 300 μm were obtained using a Krumdieck tissue slicer MD6000 (TSE systems, Chesterfield, MO) with ice-cold and carbogen-saturated Krebs–Henseleit buffer.
After 5 min of preincubation at 4 and 37 °C, the liver slices were transferred to 24-well plates containing 500 μL of buffer with 10 μM EZE-Ph for 10 min. After incubation, the liver slices were washed 3 times with ice-cold HBSS and dried on filter paper. Each liver slice was homogenized with 200 μL of purified water and the protein content was determined using a BCA protein assay kit. The concentration of EZE-Ph was determined using LC-MS/MS.

The target in another data set is T1, OATP1B1 (Homo sapiens, UniProt Q9Y6L6).
T1 construct: host or cells: HEK293
T1 sequence (Q9Y6L6 1-691): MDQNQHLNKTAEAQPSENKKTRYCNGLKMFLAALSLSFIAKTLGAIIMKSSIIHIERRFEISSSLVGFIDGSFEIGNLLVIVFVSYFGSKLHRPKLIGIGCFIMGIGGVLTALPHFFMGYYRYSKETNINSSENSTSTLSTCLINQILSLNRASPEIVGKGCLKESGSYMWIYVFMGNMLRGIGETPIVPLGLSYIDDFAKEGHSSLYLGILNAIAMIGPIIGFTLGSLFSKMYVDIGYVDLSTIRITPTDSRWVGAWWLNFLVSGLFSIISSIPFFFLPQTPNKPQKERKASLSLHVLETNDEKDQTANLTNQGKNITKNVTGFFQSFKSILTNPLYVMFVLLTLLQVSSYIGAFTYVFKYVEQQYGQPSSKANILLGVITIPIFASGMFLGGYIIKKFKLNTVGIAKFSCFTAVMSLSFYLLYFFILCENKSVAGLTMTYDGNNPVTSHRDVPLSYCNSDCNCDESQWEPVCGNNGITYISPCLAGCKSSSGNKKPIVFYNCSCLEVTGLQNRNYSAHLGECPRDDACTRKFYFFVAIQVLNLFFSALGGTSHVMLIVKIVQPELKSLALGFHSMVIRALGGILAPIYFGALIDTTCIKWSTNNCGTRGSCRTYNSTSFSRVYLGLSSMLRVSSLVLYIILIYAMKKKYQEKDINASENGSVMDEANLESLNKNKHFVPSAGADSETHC
The data set can be described thus: Uptake of EZE-Ph into OATP1B1-transfected HEK293 cells. It counts as in vitro ADME. As to the method: (§1) The kinetic parameters and the half inhibitory concentration (IC50) were calculated using GraphPad Prism. […] The intrinsic clearance (CLint) was calculated as CLint = Vmax/Km.

For a further data set, the target named is T2, OAT3 (Homo sapiens, UniProt Q8TCC7).
T2 construct: host or cells: HEK293
T2 sequence (Q8TCC7 1-542): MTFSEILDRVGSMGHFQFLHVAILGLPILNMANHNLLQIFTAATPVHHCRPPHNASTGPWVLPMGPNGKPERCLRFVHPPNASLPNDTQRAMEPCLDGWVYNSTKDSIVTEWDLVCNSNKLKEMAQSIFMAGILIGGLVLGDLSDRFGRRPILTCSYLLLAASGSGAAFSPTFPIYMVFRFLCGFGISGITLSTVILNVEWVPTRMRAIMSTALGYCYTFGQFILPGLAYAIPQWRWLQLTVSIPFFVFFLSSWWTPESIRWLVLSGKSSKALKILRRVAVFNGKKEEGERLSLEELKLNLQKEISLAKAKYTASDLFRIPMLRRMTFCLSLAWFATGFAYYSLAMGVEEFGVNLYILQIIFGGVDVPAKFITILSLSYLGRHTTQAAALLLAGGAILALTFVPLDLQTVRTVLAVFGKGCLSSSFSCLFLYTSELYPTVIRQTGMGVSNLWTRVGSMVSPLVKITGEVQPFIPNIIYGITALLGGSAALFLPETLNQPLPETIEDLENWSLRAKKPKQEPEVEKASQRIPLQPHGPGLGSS
The data set can be described thus: Uptake of EZE-Ph into OAT3-transfected HEK293 cells. It counts as in vitro ADME. The protocol: as §1

Another data set relates to OAT1. The data set can be described thus: Uptake of EZE-Ph into OAT1-transfected HEK293 cells. It counts as in vitro ADME, human. Conditions: 10 μM EZE-Ph.
Another data set deals with OCT2. Description: Uptake of EZE-Ph into OCT2-transfected HEK293 cells. It counts as in vitro ADME, human. Particulars: 10 μM EZE-Ph.
On the set-up of data set [1]: method as in PMID 10780982. Conditions: intraduodenal administration of EZE; cited from earlier work.
The target in a further data set is T3, OATP1B3 (Homo sapiens, UniProt Q9NPD5).
T3 sequence (Q9NPD5 1-702): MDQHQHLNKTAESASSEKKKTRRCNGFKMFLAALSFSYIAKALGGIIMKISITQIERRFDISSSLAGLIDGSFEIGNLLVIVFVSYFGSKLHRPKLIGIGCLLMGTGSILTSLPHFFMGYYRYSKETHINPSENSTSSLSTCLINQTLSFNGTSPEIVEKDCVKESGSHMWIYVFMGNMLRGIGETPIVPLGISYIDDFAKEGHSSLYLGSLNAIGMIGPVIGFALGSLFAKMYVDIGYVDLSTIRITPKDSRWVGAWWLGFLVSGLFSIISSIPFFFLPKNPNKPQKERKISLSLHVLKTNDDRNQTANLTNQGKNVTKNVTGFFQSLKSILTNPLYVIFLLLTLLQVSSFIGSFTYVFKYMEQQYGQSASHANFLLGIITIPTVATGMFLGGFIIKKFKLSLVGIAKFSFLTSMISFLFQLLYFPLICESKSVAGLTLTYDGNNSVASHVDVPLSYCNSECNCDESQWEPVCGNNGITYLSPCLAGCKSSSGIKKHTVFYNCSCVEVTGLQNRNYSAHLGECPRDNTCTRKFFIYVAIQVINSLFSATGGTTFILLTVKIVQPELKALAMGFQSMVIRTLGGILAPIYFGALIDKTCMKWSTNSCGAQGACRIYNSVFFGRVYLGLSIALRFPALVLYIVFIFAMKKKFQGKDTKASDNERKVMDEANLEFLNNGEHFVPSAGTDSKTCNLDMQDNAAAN
Description: Uptake of EZE-Ph into OATP1B3-transfected HEK293 cells. It counts as in vitro ADME. Further details: host or cells: HEK293. The protocol: as §1

On the set-up of data set [2]: method as in earlier work. Conditions: cited from earlier work.
On the set-up of data set [3]: method as in PMID 11901097. Conditions: cited from earlier work.
Where [4] appears, read: OATP1B3 HEK293, uptake time 5 min.

SMILES strings stand for the structures. Like-named read-outs stand apart in the source and are kept apart here. Some results are limits rather than exact numbers.

Description for OAT1: (§2) Human OATP1B1-, OATP1B3-, OATP2B1-, OAT1-, OAT3-, or OCT2-transfected HEK293 cells and vector-transfected control cells (mock) were constructed at HD Biosciences Co., Ltd. (Shanghai, China). The functions of these transporters were evaluated using relevant positive substrates and inhibitors. Estradiol-17β-glucuronide (5 μM, OATP1B1 and OATP1B3), estrone 3-sulfate sodium salt (E3S, 5 μM, OATP2B1), para-aminohippuric acid (PAH, 20 μM, OAT1), furosemide (5 μM, OAT3), and 1-methyl-4-phenyl pyridinium (MPP^+, 5 μM, OCT2) were used as substrates for the transporters. […] The cells (50,000 per well) were cultured in Dulbecco’s modified Eagle’s medium (containing 10% fetal bovine serum, 1% GlutaMAX-I, 1% penicillin G/streptomycin, and 1% nonessential amino acids) on poly-D-lysine-coated 96-well plates at 37 °C in an atmosphere of 5% CO2.
(§3) The cells were rinsed three times with HBSS (37 °C) and then equilibrated in HBSS for 10 min. […] The protein content was measured using a BCA protein assay kit. The concentrations of EZE and EZE-Ph were determined using LC-MS/MS.
(§4) The rates of substrate uptake were normalized using the protein contents of cell lysates. The net uptake via transporters was calculated by subtracting the uptake in vector-transfected HEK293 cells (or uptake into hepatocytes at 4 °C) from that in transporter-transfected HEK293 cells (or uptake into hepatocytes at 37 °C).
Description for OCT2: as §2, §3, §4

The term Km denotes the concentration of substrate that gives half-maximal velocity. For `O=C(O)[C@H]1O[C@@H](Oc2ccc([C@@H]3[C@@H](CC[C@H](O)c4ccc(F)cc4)C(=O)N3c3ccc(F)cc3)cc2)[C@H](O)[C@@H](O)[C@@H]1O` [EZE-Ph, ezetimibe phenoxy β-D-glucuronide], in the data set with liver slices, the “EZE-Ph uptake in liver slices, 37 °C vs 4 °C” value was “significantly greater at 37 °C than 4 °C”. Further, the “EZE-Ph uptake in liver slices, control vs CCl4-induced rats” value with liver slices is “no significant difference”. In addition, the “uptake in transporter-transfected cells relative to mock-transfected cells” value on OATP1B1 (10 μM EZE-Ph, OATP1B1 HEK293) is 5.3 times; on OAT3 (10 μM EZE-Ph, OAT3 HEK293), 8.9 times; in the data set with OAT1, “less than twice”; in the data set with OCT2, “less than twice”; at OATP1B3 (10 μM EZE-Ph, OATP1B3 HEK293) it was 56 times. Besides, the CLint on OATP1B1 (OATP1B1 HEK293, CLint = Vmax/Km) was found to be 0.56 μL/min/mg Protein; on OAT3 (OAT3 HEK293, CLint = Vmax/Km) it was 1.84 μL/min/mg Protein; at OATP1B3 (OATP1B3 HEK293, CLint = Vmax/Km), 6.73 μL/min/mg Protein. Moreover, the “Kinetic Model” value on OATP1B1 (OATP1B1 HEK293, uptake time 5 min) was “Substrate inhibition”; on OAT3 (OAT3 HEK293, uptake time 5 min) it was “Allosteric sigmoidal”; at OATP1B3 (setting [4]) it was “Substrate inhibition”. Besides, the “h (Hill slope)” value at OAT3 (OAT3 HEK293, allosteric sigmoidal model) was 1.19. The “EZE-Ph generated in the intestine” value in data set [1] is given as greater than 95%. Besides, the Vmax on OATP1B3 (setting [4]) came out at 134 pmol/min/mg Protein. In addition, on OATP1B3 (human, OATP1B3-transfected HEK293 cells, OATP1B3 HEK293, uptake time 5 min), the Km at 5 min was 19.9 µM.
Turning to `O=C1[C@H](CC[C@H](O)c2ccc(F)cc2)[C@@H](c2ccc(O)cc2)N1c1ccc(F)cc1` [EZE, 1-(4-fluorophenyl)-3(R)-[3-(4-fluorophenyl)-3(S)-hydroxypropyl]-4(S)-(4-hydroxyphenyl)-2-azetidinone, reference compound], the “plasma exposure, fold higher than in healthy subjects” value in data set [2] (mild CLD patients) was 1.4 fold; in data set [2] (moderate CLD patients) it was 5.8 fold; in data set [2] (severe CLD patients), 4.8 fold. The “share of the EZE-related material in human plasma” value in data set [3] is recorded as 10–20%.
